These results are taken from a polymer gas permeability compilation.

As to `*Oc1c(C)cc(C(c2cc(C)c(OC(*)=O)c(C)c2)(C(F)(F)F)C(F)(F)F)cc1C` (repeat unit), the CH4 permeability was determined as 2.79 Barrer, the CO2 permeability was 71.5 Barrer, the H2 permeability is 126 Barrer and the N2 permeability is 4.75 Barrer. The compound also yielded an O2 permeability of 20.9 Barrer.
Take `*c1ccc(Oc2ccc(C(=O)c3ccc(Oc4ccc(C(*)(c5ccccc5)C(F)(F)F)cc4)cc3)cc2)cc1` (repeat unit): the CO2 permeability stood at 4.2 Barrer, the H2 permeability amounted to 11 Barrer, the N2 permeability stood at 0.15 Barrer and the O2 permeability stood at 0.91 Barrer.
The compound `*/C(C)=C(/*)[Si](C)(C)C` (repeat unit) registered a CH4 permeability of 15000 Barrer, a CO2 permeability of 28600 Barrer, an H2 permeability of 15000 Barrer and an N2 permeability of 6600 Barrer. Moreover, the O2 permeability was 9000 Barrer.
Compound `*c1ccc(C(c2ccc(N3C(=O)c4ccc(-c5ccc6c(c5)C(=O)N(*)C6=O)cc4C3=O)cc2)(C(F)(F)F)C(F)(F)F)cc1` (repeat unit) returned a CH4 permeability of 0.611 Barrer, a CO2 permeability of 22.1 Barrer, an N2 permeability of 0.979 Barrer and an O2 permeability of 5.22 Barrer.
On the same counts, the results for `*CC(C)C(=O)OC(C)C(*)=O` (repeat unit) are 1 Barrer, 0.905 Barrer, 0.04 Barrer and 0.26 Barrer.
`*CC(*)C(=O)OCCCCCCCCCC` (repeat unit) showed a CH4 permeability of 47.8 Barrer, a CO2 permeability of 261 Barrer, an H2 permeability of 92.7 Barrer and an N2 permeability of 19 Barrer. This compound gave an O2 permeability of 47.6 Barrer.
On the same counts, the results for `*Oc1ccc(-c2ccc(C3CCC(Oc4ccc(C5(c6ccc(*)cc6)c6ccccc6-c6ccccc65)cc4)C(C(F)(F)F)C3)s2)cc1C(F)(F)F` (repeat unit) are 1.8 Barrer, 35.7 Barrer, 55 Barrer, 1.99 Barrer and 8.4 Barrer.
Regarding `*Oc1ccc(C(=O)c2ccccc2-c2ccccc2C(=O)c2ccc(Oc3c(C)cc(-c4cc(C)c(*)c(C)c4)cc3C)cc2)cc1` (repeat unit), the CH4 permeability was 0.264 Barrer, the CO2 permeability amounted to 6.96 Barrer, the N2 permeability turned out to be 0.291 Barrer and the O2 permeability was determined as 1.86 Barrer.
For `*c1c(C)cc(-c2cc(C)c(-n3c(=O)c4cc5oc6cc7c(cc6oc5cc4c3=O)C3(C)CCC7(C)c4cc5oc6cc7c(=O)n(*)c(=O)c7cc6oc5cc43)c3ccccc23)c2ccccc12` (repeat unit), the CH4 permeability is 180 Barrer, the CO2 permeability stood at 3000 Barrer, the H2 permeability amounted to 2490 Barrer and the N2 permeability was 141 Barrer. This compound also came in with an O2 permeability of 583 Barrer.
As for `*c1ccc(-c2ccc(N3C(=O)c4ccc(Oc5cc(C(C)(C)C)ccc5Oc5ccc6c(c5)C(=O)N(*)C6=O)cc4C3=O)c(OC)c2)cc1OC` (repeat unit), the CH4 permeability was determined as 0.16 Barrer, the CO2 permeability came out at 6.7 Barrer, the H2 permeability was found to be 22 Barrer and the N2 permeability was found to be 0.21 Barrer. The compound also displayed an O2 permeability of 1.4 Barrer.
For `*OC(=O)Oc1ccc(C(=C(Cl)Cl)c2ccc(*)cc2)cc1` (repeat unit) the same measures were 0.27 Barrer, 6.5 Barrer, 11.3 Barrer, 0.26 Barrer and 1.4 Barrer.
Regarding `*Oc1ccc2c(c1)C1(CC2(C)C)CC(C)(C)c2ccc(Oc3ccc4c(c3)C(=O)N(c3cccc(N5C(=O)c6ccc(*)cc6C5=O)c3)C4=O)cc21` (repeat unit), the CH4 permeability turned out to be 0.155 Barrer, the CO2 permeability was found to be 4.5 Barrer, the N2 permeability was found to be 0.203 Barrer and the O2 permeability is 1.4 Barrer.
In turn, `*c1cccc(Oc2cccc(-n3c(=O)c4cc5c(=O)n(*)c(=O)c5cc4c3=O)c2)c1` (repeat unit) came in with a CH4 permeability of 0.008 Barrer, a CO2 permeability of 0.5 Barrer, an H2 permeability of 3.6 Barrer and an N2 permeability of 0.0181 Barrer. The O2 permeability was found to be 0.13 Barrer.
Consider `*c1ccc(C(c2ccc(N3C(=O)c4ccc(C(c5ccc6c(c5)C(=O)N(*)C6=O)(C(F)(F)F)C(F)(F)F)cc4C3=O)cc2)(C(F)(F)F)C(F)(F)F)cc1` (repeat unit), for which the CH4 permeability stood at 1.6 Barrer, the CO2 permeability came out at 63.9 Barrer, the H2 permeability stood at 108 Barrer and the N2 permeability is 3.36 Barrer. The compound also gave an O2 permeability of 16.2 Barrer.
`*c1c(C)c2c(c(N3C(=O)c4ccc(-c5ccc6c(c5)C(=O)N(*)C6=O)cc4C3=O)c1C)C(C)(C)CC2` (repeat unit) had a CH4 permeability of 23.9 Barrer, a CO2 permeability of 329 Barrer, an N2 permeability of 22 Barrer and an O2 permeability of 83.4 Barrer.
For `*Oc1ccc(C(c2ccc(Oc3ccc(S(=O)(=O)c4ccc(*)cc4)cc3)cc2)(C(F)(F)F)C(F)(F)F)cc1` (repeat unit), the CH4 permeability was 0.55 Barrer, the CO2 permeability was determined as 12 Barrer, the N2 permeability is 0.67 Barrer and the O2 permeability was 3.4 Barrer.
As for `*/C(C)=C(/*)[Si](C)(C)CCCC` (repeat unit), the CH4 permeability is 17 Barrer, the CO2 permeability turned out to be 100 Barrer, the H2 permeability amounted to 65 Barrer and the N2 permeability came to 8 Barrer. The O2 permeability came out at 29 Barrer.
`*CC(*)c1ccc(OC(C)=O)cc1` (repeat unit) gave a CH4 permeability of 0.99 Barrer, a CO2 permeability of 16.3 Barrer, an N2 permeability of 0.64 Barrer and an O2 permeability of 3.1 Barrer.
In the case of `*NC(=O)c1ccc(C(c2ccc(C(=O)O)c(C(=O)Nc3cc(Oc4ccc(*)c(N)c4)ccc3N)c2)(C(F)(F)F)C(F)(F)F)cc1C(=O)O` (repeat unit), the CH4 permeability came to 0.087 Barrer, the CO2 permeability came out at 3.69 Barrer, the N2 permeability worked out at 0.17 Barrer and the O2 permeability amounted to 0.97 Barrer.
On the same counts, the results for `*Oc1c(C)cc(C(C)(C)c2cc(C)c(Oc3ccc(S(=O)(=O)c4ccc(*)cc4)cc3)c(C)c2)cc1C` (repeat unit) are 0.95 Barrer, 21 Barrer, 1.06 Barrer and 5.6 Barrer.
The compound `*Nc1ccc(C(c2ccc(NC(=O)c3cccc(C(*)=O)c3)cc2)(C(F)(F)F)C(F)(F)F)cc1` (repeat unit) came in with a CH4 permeability of 0.2 Barrer, a CO2 permeability of 9 Barrer, an H2 permeability of 29 Barrer and an N2 permeability of 0.42 Barrer. This compound registered an O2 permeability of 2.4 Barrer.
For the compound `*Oc1ccc(Cc2ccc(Oc3ccc(S(=O)(=O)c4ccc(*)cc4)cc3)cc2)cc1` (repeat unit), the CH4 permeability was 0.19 Barrer, the CO2 permeability amounted to 4.5 Barrer, the H2 permeability was found to be 10.4 Barrer and the N2 permeability was determined as 0.2 Barrer. Moreover, the O2 permeability was 1.1 Barrer.
`*CC(*)(C)c1ccccc1` (repeat unit) yielded a CH4 permeability of 0.14 Barrer, a CO2 permeability of 3 Barrer, an N2 permeability of 0.15 Barrer and an O2 permeability of 0.82 Barrer.
For `*c1ccc(-c2ccc(Oc3ccc4c(c3)C(C)(c3ccc(Oc5ccc(-c6ccc(-n7c(=O)c8cc9c(=O)n(*)c(=O)c9cc8c7=O)cc6)cc5C(F)(F)F)cc3)CC4(C)C)c(C(F)(F)F)c2)cc1` (repeat unit) the same measures were 1.52 Barrer, 44.7 Barrer, 2.36 Barrer and 12.2 Barrer.
For `*Oc1ccc(C(C)(C)c2ccc(OC(=O)c3ccc(C(=O)Oc4cc(-c5cc(*)cc6ccccc56)c5ccccc5c4)cc3)cc2)cc1` (repeat unit) the same measures were 0.471 Barrer, 9.9 Barrer, 0.364 Barrer and 2.04 Barrer.
In turn, `*/C(C)=C(/*)[Si](C)(C)CCC` (repeat unit) returned a CH4 permeability of 44 Barrer, a CO2 permeability of 230 Barrer, an H2 permeability of 250 Barrer and an N2 permeability of 21 Barrer. This compound came in with an O2 permeability of 70 Barrer.
On the same counts, the results for `*c1ccc(Oc2ccc(C3(c4ccc(Oc5ccc(N6C(=O)c7ccc(C(c8ccc9c(c8)C(=O)N(*)C9=O)(C(F)(F)F)C(F)(F)F)cc7C6=O)cc5C(F)(F)F)cc4)c4ccccc4-c4ccccc43)cc2)c(C(F)(F)F)c1` (repeat unit) are 2.43 Barrer, 61.8 Barrer, 151 Barrer, 5.2 Barrer and 20 Barrer.
Regarding `*Oc1cc2c(cc1O*)C1(CC2(C)C)CC(C)(C)c2cc3c(cc21)Oc1c(c(C(F)(F)F)c(*)c(*)c1S(=O)(=O)c1ccccc1)O3` (repeat unit), the CO2 permeability is 2160 Barrer, the N2 permeability stood at 116 Barrer and the O2 permeability is 434 Barrer.
Compound `*C(C(=O)OC1CCCCC1)C(*)C(=O)OC(C)(C)C` (repeat unit) displayed an H2 permeability of 72 Barrer, an N2 permeability of 5 Barrer and an O2 permeability of 17 Barrer.
With `*c1ccc(Oc2ccc(-n3c(=O)c4cc5c(=O)n(*)c(=O)c5cc4c3=O)cc2)cc1` (repeat unit), the CH4 permeability was 0.0682 Barrer, the CO2 permeability was determined as 2.73 Barrer, the H2 permeability worked out at 7.52 Barrer and the N2 permeability worked out at 0.0995 Barrer. The O2 permeability came to 0.591 Barrer.
For `*C(=C(*)c1ccc2c(c1)Cc1ccccc1-2)c1ccc([Si](C)(C)C)cc1` (repeat unit) the same measures were 2000 Barrer, 6450 Barrer, 3100 Barrer, 950 Barrer and 1650 Barrer.
Turning to `*C(=C(*)c1ccc2c(c1)C(C)(C)c1ccccc1-2)c1ccc(F)c(F)c1` (repeat unit), the CH4 permeability was determined as 12000 Barrer, the CO2 permeability amounted to 26000 Barrer, the H2 permeability came out at 11000 Barrer and the N2 permeability came to 5100 Barrer. The O2 permeability was determined as 6600 Barrer.
`*c1ccc(Oc2ccc(N3C(=O)c4ccc([Si](C)(C)c5ccc6c(c5)C(=O)N(*)C6=O)cc4C3=O)cc2)cc1` (repeat unit) returned a CH4 permeability of 0.161 Barrer, a CO2 permeability of 3.31 Barrer, an H2 permeability of 9.83 Barrer and an N2 permeability of 0.104 Barrer. Further, the O2 permeability turned out to be 0.636 Barrer.
